Data set [1] can be described thus: Trypanosoma cruzi growth suppression in host cells – NIH3T3 host cells, beta-gal luminescence, confirmation (AID 2044).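 Also: intracellular parasites grown in NIH/3T3 mouse fibroblasts as host cells; luminescent beta-galactosidase reporter signal from transgenic T. cruzi replicating inside host cells; inhibitors lower the luminescence signal.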 Format: functional, cell-based.
Data set [2] is described as follows: NIH3T3 cell viability loss – ATP luminescence, mouse fibroblasts, counter-screen, dose response (AID 2010).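 Also: cells exposed to compound for about 90 hours before reading.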 The data set is classed as functional, cell-based. (A counterscreen serves to expose hits that act by an unwanted route or on another target.)
The target of data set [3] is T1, Cytochrome P450 1A2 (Homo sapiens, UniProt P05177).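 Also: PubChem cytochrome P450 panel assay, CYP1A2 panel member.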
T1 sequence (P05177 whole entry): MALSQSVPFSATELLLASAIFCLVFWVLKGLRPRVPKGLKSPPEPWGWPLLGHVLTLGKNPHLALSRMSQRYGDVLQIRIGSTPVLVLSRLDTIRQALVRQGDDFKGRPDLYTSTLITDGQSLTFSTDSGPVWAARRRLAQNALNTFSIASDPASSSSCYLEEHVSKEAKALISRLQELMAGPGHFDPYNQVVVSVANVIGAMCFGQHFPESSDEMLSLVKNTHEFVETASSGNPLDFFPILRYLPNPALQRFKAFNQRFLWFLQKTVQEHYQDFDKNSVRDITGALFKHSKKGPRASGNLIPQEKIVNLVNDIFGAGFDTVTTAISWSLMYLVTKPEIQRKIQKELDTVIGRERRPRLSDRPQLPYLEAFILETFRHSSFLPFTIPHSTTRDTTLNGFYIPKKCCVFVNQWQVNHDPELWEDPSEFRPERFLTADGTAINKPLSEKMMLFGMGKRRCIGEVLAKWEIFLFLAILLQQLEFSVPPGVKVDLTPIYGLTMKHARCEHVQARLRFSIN

The target in data set [4] is Cytochrome P450 3A4 (Homo sapiens, UniProt P08684).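 Also: CYP3A4 tested as one member of a cytochrome P450 panel screen.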
For data set [5], the target named is Cytochrome P450 2C19 (Homo sapiens, UniProt P33261). Kind of data set: Cytochrome panel assay with activity outcomes. Panel member name: p450-cyp2c19 Compounds with AC50 equal or less than 10 uM are considered active. Format: functional.
Data set [6] has as its target T2, Heat shock factor protein 1 (Mus musculus, UniProt P38532).
T2 sequence (P38532 whole entry): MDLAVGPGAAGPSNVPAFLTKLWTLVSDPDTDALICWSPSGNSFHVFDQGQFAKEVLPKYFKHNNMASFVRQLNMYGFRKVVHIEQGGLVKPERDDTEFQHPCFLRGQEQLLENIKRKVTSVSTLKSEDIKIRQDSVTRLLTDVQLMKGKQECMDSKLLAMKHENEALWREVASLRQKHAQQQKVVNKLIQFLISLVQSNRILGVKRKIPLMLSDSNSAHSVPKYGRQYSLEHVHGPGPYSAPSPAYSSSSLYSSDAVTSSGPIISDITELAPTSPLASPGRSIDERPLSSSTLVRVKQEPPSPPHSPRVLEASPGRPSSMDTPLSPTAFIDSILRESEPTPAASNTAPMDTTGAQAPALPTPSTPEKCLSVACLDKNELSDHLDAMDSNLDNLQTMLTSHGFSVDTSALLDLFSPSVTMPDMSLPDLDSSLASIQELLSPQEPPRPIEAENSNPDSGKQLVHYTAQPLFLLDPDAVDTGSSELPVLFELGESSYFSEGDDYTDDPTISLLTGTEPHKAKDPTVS
Kind of data set: enhancement of HSF1-driven luciferase signal – cell-based, NIH3T3, luminescence, dose retest, confirmation (AID 435004).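 Also: stress induced by proteasome inhibitor MG132 added 30 min after compound; luciferase reporter driven by HSF1 response element in NIH3T3 cells; actives raise luminescence as potentiators of the MG132 stress response.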 Format: functional.

For data set [7], the target named is T3, Streptokinase A (Streptococcus pyogenes serotype M1, UniProt P10520).
T3 sequence (P10520 whole entry): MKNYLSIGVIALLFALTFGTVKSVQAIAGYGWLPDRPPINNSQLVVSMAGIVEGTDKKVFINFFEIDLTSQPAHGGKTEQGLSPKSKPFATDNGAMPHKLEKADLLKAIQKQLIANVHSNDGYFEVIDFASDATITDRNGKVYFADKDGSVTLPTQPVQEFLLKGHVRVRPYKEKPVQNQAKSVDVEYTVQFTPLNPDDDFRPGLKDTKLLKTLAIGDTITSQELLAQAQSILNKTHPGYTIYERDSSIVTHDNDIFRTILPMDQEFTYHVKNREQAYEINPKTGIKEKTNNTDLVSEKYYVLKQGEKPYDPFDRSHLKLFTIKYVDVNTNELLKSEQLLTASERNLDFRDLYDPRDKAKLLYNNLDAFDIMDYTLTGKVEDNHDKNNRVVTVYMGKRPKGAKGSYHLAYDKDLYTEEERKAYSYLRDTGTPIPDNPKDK
The data set can be described thus: viability-normalized secreted streptokinase activity reduction – plasminogen activation absorbance, OD405, dose response (AID 1914).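 Also: secreted streptokinase activity via plasminogen activation per viability signal from cell pellet.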 The data set is classed as functional, Streptococcus pyogenes M1 GAS.

The test system of data set [8] is Streptococcus. Kind of data set: GAS UMAA2166 growth inhibition – luminescence, BacTiterGlo, counter-screen for streptokinase expression inhibitor project, dose response (AID 1915).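 Also: potency for reduction of bacterial viability or growth.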 Format: functional, organism-based.
For data set [9], the system named is Streptococcus sp. 'group A'. Kind of data set: Streptococcus pyogenes SK(-)GAS viability under kanamycin – luminescence, BacTiterGlo, confirmation, counter-screen for streptokinase expression inhibitor project, dose response (AID 1900). Format: functional, organism-based.

Activity calls are given as the source filed them. A value given as a limit tells only on which side of the number the result lay.

Sequence of Cytochrome P450 2C19 (P33261 whole entry): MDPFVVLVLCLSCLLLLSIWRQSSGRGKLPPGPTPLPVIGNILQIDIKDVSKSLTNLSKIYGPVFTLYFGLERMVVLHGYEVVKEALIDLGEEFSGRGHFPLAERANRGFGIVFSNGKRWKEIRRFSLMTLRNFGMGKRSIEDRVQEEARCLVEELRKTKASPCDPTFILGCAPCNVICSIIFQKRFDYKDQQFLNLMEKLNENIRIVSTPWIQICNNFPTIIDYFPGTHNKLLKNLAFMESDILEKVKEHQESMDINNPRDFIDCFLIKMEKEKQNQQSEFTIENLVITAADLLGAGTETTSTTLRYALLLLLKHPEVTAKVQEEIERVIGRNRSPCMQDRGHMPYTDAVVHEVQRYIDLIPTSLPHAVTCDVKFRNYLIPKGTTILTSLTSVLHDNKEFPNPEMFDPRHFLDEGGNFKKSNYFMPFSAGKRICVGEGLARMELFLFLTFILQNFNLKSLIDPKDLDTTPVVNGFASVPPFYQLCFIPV
Sequence of Cytochrome P450 3A4 (P08684 whole entry): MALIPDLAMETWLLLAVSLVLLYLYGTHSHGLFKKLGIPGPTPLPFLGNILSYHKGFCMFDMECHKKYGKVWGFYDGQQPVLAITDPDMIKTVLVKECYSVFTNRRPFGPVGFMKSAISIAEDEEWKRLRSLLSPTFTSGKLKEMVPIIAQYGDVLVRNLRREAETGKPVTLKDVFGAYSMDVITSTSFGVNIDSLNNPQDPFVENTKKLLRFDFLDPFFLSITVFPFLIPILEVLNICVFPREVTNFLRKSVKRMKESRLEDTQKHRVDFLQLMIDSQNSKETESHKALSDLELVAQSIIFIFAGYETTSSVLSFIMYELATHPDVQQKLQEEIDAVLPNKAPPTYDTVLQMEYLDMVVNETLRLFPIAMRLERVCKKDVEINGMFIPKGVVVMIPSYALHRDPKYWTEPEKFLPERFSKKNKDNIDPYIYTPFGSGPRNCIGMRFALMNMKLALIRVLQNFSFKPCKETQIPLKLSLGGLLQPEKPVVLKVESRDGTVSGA

`Cc1nn2c(O)c3c(nc2c1-c1ccc(F)cc1)CCCC3`: the EC50 in data set [1] was 0.451 µM (active); in data set [2], 10.1 µM (active).
Turning to `COc1ccc2c(c1)N(C[C@@H](C)CN(C)C)c1ccccc1S2` [DEXTROMEPROMAZINE], the results for the AC50 in data set [3] and in data set [4] were 15.8 µM (inconclusive) and 7.94 µM (inconclusive), respectively.
Regarding `O=C(Nc1cc(S(=O)(=O)N2CCOCC2)ccc1-n1cncn1)c1ccc(Cl)cc1`, the EC50 in data set [1] is 2.54 µM (active); in data set [2], > 60 µM (not active).
As to `CCCSc1nc(C)cc(C)c1C(N)=O`, the AC50 in [3] was 28.2 µM (inconclusive).
Take `CC(C)(C)c1cc2cccnc2n1Cc1cccc(F)c1`: the AC50 in data set [5] (read-out: AC50) was 11.2 µM (inconclusive); in [3], 12.6 µM (inconclusive); in [4] it was 15.8 µM (inconclusive).
With `CC1(C)Cc2c(C#N)c(N3CCCC3)nc(-c3ccco3)c2CO1`, the EC50 in data set [6] is > 260 µM (inactive).
Turning to `O=C(Nc1ccc2c(c1)C(=O)OC2)c1ccc(Cl)cc1`, the EC50 in data set [6] is > 260 µM (inactive).
As to `O=C(Nc1nnc(C2CC2)s1)c1cc(S(=O)(=O)N2CCN(c3ccccc3)CC2)ccc1Cl`, the AC50 in data set [3] is 11.2 µM (inconclusive).
With `CCOC(=O)C(CCOc1cccc(CC)c1)C(=O)OCC`, in data set [6], the EC50 is 59.6 µM (active).
The same measure, in the same setting: in the case of `CCCCOc1ccc(CSc2nc[nH]n2)cc1` it was 106 µM (active).
On to `COc1ccccc1NC(=O)C1=C(C)Nc2nc(-c3ccc(N(C)C)cc3)nn2C1c1ccncc1` (centres undefined), for which the AC50 in [3] was 12.6 µM (inconclusive).
Turning to `CCCCN(C(=O)/C=C/c1ccco1)c1c(N)n(CCC)c(=O)[nH]c1=O`, the EC50 in data set [6] was > 260 µM (inactive).
As to `COc1ccc([N+](=O)[O-])cc1NC(=S)NC(NC(=O)C(c1ccccc1)c1ccccc1)C(Cl)(Cl)Cl` (centres undefined), the EC50 in data set [7] is > 150 µM (not active).
Turning to `CCn1c(C(=O)NCc2cccnc2)cc2sc(Cl)cc21`, the half-maximal effective concentration (EC50) in data set [1] is 1.12 µM (active); in [2], > 60 µM (not active).
On the same counts, the results for `O=S(=O)(NCC(c1cccnc1)N1CCN(c2ccccc2)CC1)c1cc(F)ccc1F` (centres undefined) are 0.508 µM (active) and > 60 µM (not active).
For the compound `CCOC(=O)c1nnn(-c2nonc2-n2cccc2)c1CN1CCC(C)CC1`, the EC50 in [8] was > 150 µM (not active); in data set [7], 14.9 µM (active); in data set [9] it was 9.92 µM (active).
For the compound `CC1=C(C(=O)N2CCOCC2)C(c2c(C)cc(C)cc2C)NC(S)=N1` (centres undefined), the EC50 in data set [6] was > 260 µM (inactive).
Turning to `CC1(C)CC(c2nc(-c3ccc(Cl)cc3)cs2)CCS1` (centres undefined), the EC50 in data set [8] is > 150 µM (not active); in data set [7] it was 13.9 µM (active); in data set [9], 9.13 µM (active).
For `COc1ccc(-c2c(C)nn3c(Cl)c(C)c(C)nc23)cc1`, the EC50 in data set [6] was 108 µM (active).
`Cc1ccc(C(CC(=O)c2ccco2)SCCO)cc1` (centres undefined): the AC50 in data set [3] was 25.1 µM (inconclusive).
With `CC1=CC(=O)C2=C(C)C[C@@H](O)[C@@H]3[C@@H](OC(=O)[C@H]3C)[C@H]12`, the AC50 in data set [3] was 25.1 µM (inconclusive).
Regarding `COc1ccc(-n2nc([N+](=O)[O-])c(NCCc3ccc(Cl)cc3)[n+]2[O-])cc1`, the EC50 is 0.602 µM (active) in [1] and > 60 µM (not active) in [2].
As for `COC(=O)C1(O)CC(CC(C)C)=NN1C(=O)c1ccccc1` (centres undefined), the EC50 in [6] was > 260 µM (inactive).
Consider `CCOc1ccc(NC(=O)CSc2nnc(Cc3ccccc3)c(=O)n2N)cc1`, for which the EC50 in [8], in data set [7] and in [9] was > 150 µM (not active) throughout.
Turning to `COC(=O)Cc1ccc(NC(=O)c2ccc(C)c(C)c2)cc1`, in data set [6], the EC50 was 69.4 µM (active).
Turning to `COc1cccc(Nc2c3c(nc4c(-c5ccccc5)c(C)nn24)CCC3)c1`, the EC50 in [8] was > 150 µM (not active); in data set [7], 8.91 µM (active); in data set [9] it was 15 µM (active).
As for `O=C1[C@H]2[C@@H](c3ccc(Cl)cc3)N3C(=O)N(c4cccc(Br)c4)C(=O)[C@@]3(Cc3ccc(Cl)cc3)[C@H]2C(=O)N1C1CCCCC1`, the values for the EC50 in data set [1] and in data set [2] were 1.24 µM (active) and > 60 µM (not active), respectively.
`O=S(=O)(c1ccc(F)cc1)c1nc(-c2ccccc2)oc1N1CCOCC1`: the EC50 in [8], in data set [7] and in data set [9] was > 150 µM (not active) in each case.
With `Cc1cccc(C(=O)OC(C)CN2CCN(C)CC2)c1` (centres undefined), the EC50 is 0.994 µM (active) in data set [1] and > 30 µM (not active) in [2].
With `Cn1c(=O)c2nc(CCCCC(=O)O)[nH]c2n(C)c1=O`, the figures for the concentration at half-maximal activity (AC50) result in data set [5] and in [3] were “inconclusive” and 0.794 µM (inconclusive), respectively.
Turning to `O=S(=O)(O)c1ccc(O)c2ncccc12`, the half-maximal activity concentration (AC50) in data set [3] was 0.631 µM (inconclusive).
In the case of `CC1(C)Cc2c(C#N)c(N)n(-c3ccccc3)c(=S)c2CO1`, in data set [6], the EC50 is > 260 µM (inactive).
For `COc1ccccc1CN1CCN(Cc2ccc(Cl)cc2)CC1`, the figures for the concentration giving a half-maximal response (EC50) in [1] and in data set [2] were 0.439 µM (active) and > 60 µM (not active), respectively.
In the case of `Cn1ccc(C(=O)N/N=C/c2ccncc2)n1`, in data set [6], the EC50 was > 260 µM (inactive).
With `CCOc1ccc2nc(N(CCN(CC)CC)C(=O)c3ccc([N+](=O)[O-])cc3)sc2c1`, the values for the concentration for a half-maximal effect (EC50) in data set [1] and in [2] were 0.184 µM (active) and > 60 µM (not active), respectively.
Consider `CCOc1ccc(NC(=O)Cn2nnc(C(=O)NCc3ccco3)c2N)cc1`, for which the EC50 in data set [6] was > 260 µM (inactive).
Regarding `N[C@H](Cc1ccc(Cl)cc1)C(=O)O`, the AC50 in data set [3] is 2 µM (inconclusive).
Consider `O=C(c1cccc(F)c1)N1CCC2(CCCN(c3cccc(-c4ccccc4)c3)C2)CC1`, for which, in [3], the concentration at half-maximal activity (AC50) is 15.8 µM (inconclusive).
Take `Cc1cccc(C)c1N1CCN(S(=O)(=O)c2ccc(F)cc2)CC1`: in data set [6], the EC50 was > 260 µM (inactive).
On to `CCOC(=O)Cn1c(S(=O)(=O)Cc2ccc(F)cc2)nc(-c2ccccc2)c1-c1ccccc1`, for which the EC50 in [6] is > 260 µM (inactive).
Turning to `Cn1cc(CNC(=O)c2sc3cccc(Cl)c3c2Cl)cn1`, the EC50 in data set [6] is > 260 µM (inactive).

By EC50 is commonly meant the concentration at which the effect is half-maximal. The term AC50 denotes the concentration at which the activity in the assay is half-maximal.

Values taken from ChEMBL document CHEMBL1201862, “PubChem BioAssay data set” (2004).
